Measurements: patent publication US20230390356A1, “HAIR GROWTH AGENT” (ADJUVANT HOLDINGS CO., LTD., priority 2020, published 2023)

Legend:
[1] = system: skin samples derived from dorsal body hair skin transplanted in Balb/c nu/nu mice; experiment: Evaluation of hair growth activity: drug applied on skin samples from mouse dorsal body hair skin grafted onto Balb/c nu/nu mice; format: in vivo
Description: C57BL/6N mice (male) and Balb/c nu/nu mice (female) were purchased from Japan SLC, Inc.(Japan) and bred, and were thereafter made available for the following testing. Note that the testing and breeding of animals complied with pertinent laws, regulations, ordinances, and guidelines, and was performed with the approval of the Experimental Ethics Review Board of the Institute of Physical and Chemical Research.
The following reagents were respectively prepared. • Placebo: 60% aqueous ethanol solution • Working Example 1: 0.05% solution of palmitoyl dipeptide-5 diaminobutyloyl hydroxythreonine
To collect dorsal body hair skin in the form of anagen stage VI skin 12 to 14 days following depilation. C57BL/6N mice of age 7 to 8 weeks were depilated at locations where dorsal body hair skin was intended to be collected, and were bred for 12 to 14 days. The depilated C57BL/6N mice were thereafter euthanized by cervical dislocation, following which a suitable amount of dorsal body hair skin was collected from the locations at which dorsal body hair skin was intended to be collected.
The collected skin was immersed in DMEM culture medium (hereinafter “DMEM 10”) which contained 10 mM HEPES, 10% fetal bovine serum, and 1% penicillin/streptomycin solution. The collected dorsal body hair skin was grasped with bent-nose curved tweezers and was treated by immersion for 10 seconds in a sterilizing solution. Sterilization treatment was performed by carrying out treatment with 7% povidone iodine solution two times, treatment with PBS (−) three times, and treatment with DMEM 10 two times, in this order, with fresh solutions respectively being used each time. Following sterilization treatment, these were immersed in clean DMEM 10.
Following sterilization treatment, the dorsal body hair skin was cut into pieces and formed into blocks. The transparent connective tissue which adhered to the cutaneous muscle layer of the skin was excised therefrom using curved scissors, and hair groups were cut into rectangular strips in parallel fashion with respect to the direction of the wave of the hair. At this time, these were cut into blocks such that there were 6 rows of hair follicles along the long axis, adjustment having been carried out so that there were 5 rows of hair follicles along the short axis.
The skin samples derived from dorsal body hair skin that were prepared in accordance with the foregoing were grafted onto Balb/c nu/nu mice of age 4 to 6 weeks.
More specifically, mice were anesthetized in the usual way using isoflurane gas. The dorsal area of the mice was then disinfected using 7% povidone iodine solution, following which the mice were made to assume a naturally recumbent posture. In addition, a Mani ophthalmic knife (Mani, Inc.; Japan) was used to pierce the skin at the dorsal area of the mice, the grafts which were formed extending from the epidermal layer of the skin to the subdermal layer. The skin samples derived from dorsal body hair skin were inserted into the grafts formed thereat in such fashion as to cause the hair groups to be directed toward the body surface side of the grafts. Skin sample transplanted depth was adjusted so as to cause the top portion of the hair group to be in a state such that it was exposed at the top portion of the graft. To protect the grafts, Nurseban (registered trademark) (Sunplanet Co., Ltd.; Japan) and surgical tape (3M Japan Limited; Japan) were then used as protective tape to cover the grafts at which the skin samples derived from dorsal body hair skin had been transplanted. The protective tape was removed 5 to 7 days following transplantation, and survival of the transplanted skin samples derived from dorsal body hair skin was determined by visual inspection or digital microscopy (Keyence Corporation: Japan), after which follow-up observation was carried out.
For the first hair cycle, 60% aqueous ethanol solution was applied thereto as placebo. […]

[2] = system: hair shafts (zigzag hairs) of skin samples transplanted in Balb/c nu/nu mice; experiment: Measurement of increase in hair diameter on hair shafts from Exemplary Test 1; format: in vivo
Description: Measurement of increase in hair diameter was carried out using hair shafts that had completed the second cycle at the foregoing Exemplary Test 1. Of the hair shafts that were collected, three zigzag hairs were used for measurement of increase in hair diameter. Three locations were selected in regions where diameter was large in the central portions thereof using a square […] on a side. For each of the selected regions, five different locations were further selected, and hair shaft diameter of the zigzag hairs thereat was measured to evaluate the degree to which increase in hair diameter had occurred.
Here, ** at FIG. 2 and TABLE 2 indicates p<0.01, i.e., that the results are significant.

[3] = system: human dermal papilla cells; experiment: Dermal papilla cell growth promotion (Cell Count Reagent SF absorbance); format: cell-based; settings: 10.268375 to 328.588 μM
Description: Human dermal papilla cells (Catalog No. CA602t05a: derived from person: Toy obo Co., Ltd. (Japan)) were purchased, testing and evaluation being carried out with maintenance and culture of cells being performed as described in the protocol.
As drugs for testing, drug solutions consisting of culture medium for human dermal papilla cells containing palmitoyl dipeptide-5 diaminobutyloyl hydroxythreonine in the following respective concentrations (final concentrations) were prepared, and these were used. • Working Example 1: 10.268375 μM • Working Example 2: 20.53675 μM • Working Example 3: 41.0735 μM • Working Example 4: 82.147 μM • Working Example 5: 164.294 μM • Working Example 6: 328.588 μM
A 96-well plate was seeded with human dermal papilla cells so as to obtain 1×10^3 thereof per well. […] After this had been added thereto, absorbance (measurement wavelength 450 nm; reference wavelength 620 nm) of the culture supernatant was measured. Based on these values, the cell growth rates at the respective wells were calculated, at which time the cell growth rate of the control group at which nothing had been added was taken to be 100%.

FGF-7 gene = FGF-7 gene expression in human dermal papilla cells by real-time PCR; format: cell-based; settings: 24 hours, FIG. 4
Description: Testing and evaluation were carried out with maintenance and culture of human dermal papilla cells being performed in the same manner as at Exemplary Test 3, above.
As drugs for testing, drug solutions of the following respective concentrations (final concentrations) were prepared and used. • Comparative Example 1: 100 μM adenosine • Working Example 1: 1 μM palmitoyl dipeptide-5 diaminobutyloyl hydroxythreonine • Working Example 2: 10 μM palmitoyl dipeptide-5 diaminobutyloyl hydroxythreonine • Working Example 3: 300 μM palmitoyl dipeptide-5 diaminobutyloyl hydroxythreonine
A 24-well plate was seeded with human dermal papilla cells so as to obtain 6×10^3 thereof per well. […]
Following culture, total RNA was extracted from the respective wells and was recovered, and this was reverse-transcribed into cDNA. […] The GAPDH gene was used as an internal standard, the amount of FGF-7 gene expression being calculated relative to the negative control group.
A FastGene RNA Basic Kit (Catalog No. FG-80250; Nippon Genetics Co., Ltd. (Japan)) was used to recover total RNA from cells. […] Concentration of the recovered RNA was measured using a NanoDrop Lite (Catalog No. ND-LITE; Thermo Fisher Scientific K.K.), and this was stored at −80° C. until the following cDNA creation procedure. […]

[4] = 0.05% solution applied topically to transplanted skin samples, second hair cycle
[5] = 0.05% solution, second hair cycle vs placebo applied in first hair cycle

## palmitoyl dipeptide-5 diaminobutyloyl hydroxythreonine
[1]; [4]
  Hair shaft elongation rate: 0.40 ± 0.08 mm/day
  Maximum hair shaft length: 5.1 ± 0.3 mm
[1]; [5]
  Hair shaft elongation rate, percent change relative to reference data: 110.45%
  Maximum hair shaft length, percent change relative to reference data: 103.27%
[1]; solution containing 0.05%
  Hair growth activity (in words): exhibit hair growth activity
  Hair shaft elongation rate as compared with reference data (in words): significant improvement
  Maximum hair shaft length as compared with reference data (in words): significant improvement
[2]; 0.05% solution
  Hair diameter as compared with 60% aqueous ethanol control (in words): clear increase in hair diameter
[2]; second hair cycle vs placebo applied in first hair cycle
  Hair shaft diameter, percent increase: 137%
[2]; zigzag hairs after second hair cycle, 0.05% solution, p<0.01
  Hair shaft diameter: 22.0 ± 1.6 ** μm
[3]; 24, 48 or 72 hours, FIG. 3
  Cell growth rate as compared with control group at which nothing had been added (in words): increase in cell growth rate
[3]; within concentration domain tested
  Concentration dependence of cell growth rate (in words): increased in concentration-dependent fashion
FGF-7 gene; 1 μM and 10 μM
  Amount of expression of FGF-7 gene as compared with control group (in words): increase in the amount of expression of the FGF-7 gene
FGF-7 gene; increased amount added
  Amount of expression of FGF-7 gene compared with 100 μM adenosine (in words): greater than that which was produced as a result of action of adenosine
